Assay results published in PubChem BioAssay AID687005 (Broad Institute, 2013).
Results filed as inconclusive are left out. Calls of active or inactive are those of the source.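 The calls were made as follows: active = Compounds that reduce signal, with fitted half-maximal dose at or under twice the top valid tested dose; inconclusive = Poor fit, or flat curve losing 30 to 70% of signal; inactive = Potency past limit, flat within 30%, or opposite direction.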

Experiment: viability loss in HEK293T cells – cell-based, ATP luminescence, cherry-pick samples, cytotoxicity control, dose response (AID 687005)
Conditions: HEK293T viability, ATP luminescence (CellTiter-Glo), 48 h; at 21 µM (top of the series)
For `C[C@@H]1CN([C@H](C)CO)C(=O)Cc2cc(NC(=O)CCCCCC(=O)Nc3ccccc3N)ccc2O[C@H]1CN(C)Cc1ccc2c(c1)OCO2`, the activity change, negative = cytotoxicity was -2.18% (inactive).

Same assay, conditions: HEK293T viability, ATP luminescence (CellTiter-Glo), 48 h; at 23.5 µM (top of the series)
With `C[C@@H]1CN([C@H](C)CO)C(=O)Cc2cc(NC(=O)Nc3cccc4ccccc34)ccc2O[C@@H]1CN(C)Cc1ccc(C(=O)O)cc1` the activity change, negative = cytotoxicity was -26.3% (inactive). In the case of `CO[C@H]1CN(C)C(=O)c2cc(NC(C)=O)ccc2OC[C@H](C)N(Cc2cccc(F)c2)C[C@@H]1C`, the activity change, negative = cytotoxicity is reported as -25.3% (inactive).

Same assay, conditions: HEK293T viability, ATP luminescence (CellTiter-Glo), 48 h; at 26 µM (top of the series)
With `COc1ccc(CN(C)C[C@@H]2Oc3c(NC(=O)Nc4cccc5ccccc45)cccc3C(=O)N([C@@H](C)CO)C[C@@H]2C)cc1` the activity change, negative = cytotoxicity was -9.75% (inactive). For `O=C(C[C@@H]1CC[C@@H](NC(=O)c2cccnc2)[C@@H](CO)O1)NCCN1CCCCC1`, the activity change, negative = cytotoxicity was -2.13% (inactive). For `C[C@H](CO)N1C[C@H](C)[C@H](CN(C)Cc2ccccc2)Oc2cc(C#Cc3ccccn3)ccc2S1(=O)=O`, the activity change, negative = cytotoxicity was -48.6% (inactive). With `CO[C@H]1CN(C)C(=O)c2ccc(NC(=O)C3CC3)cc2OC[C@@H](C)N(Cc2ccc(F)cc2)C[C@@H]1C` the activity change, negative = cytotoxicity was 37.9% (inactive). For `C[C@@H]1CN([C@@H](C)CO)C(=O)c2cc(NC(=O)C3CC3)ccc2O[C@H]1CN(C)Cc1ccc2c(c1)OCO2`, the activity change, negative = cytotoxicity was 9.22% (inactive). In the case of `O=C(C1CCOCC1)N1CC[C@@H]2[C@H]1c1cc(Br)ccc1N[C@@H]2CO`, the activity change, negative = cytotoxicity is reported as 8.11% (inactive). In the case of `O=C(NCCN1CCCCC1)[C@@H]1N[C@@H]2c3ccc(-c4ccncc4)c(=O)n3C[C@@H]2[C@H]1CO`, the activity change, negative = cytotoxicity is reported as -26.2% (inactive). For `C[C@H]1CN([C@@H](C)CO)C(=O)c2cccc(NS(C)(=O)=O)c2O[C@@H]1CN(C)Cc1ccc(-c2ccccc2)cc1`, the activity change, negative = cytotoxicity was -8.66% (inactive). With `Cc1noc(C)c1NC(=O)Nc1ccc2c(c1)C(=O)N([C@@H](C)CO)C[C@H](C)[C@H](CN(C)CC1CCCCC1)O2` the activity change, negative = cytotoxicity was -11.6% (inactive). For `COc1ccccc1CNC(=S)NCc1ccc(Cl)cc1`, the activity change, negative = cytotoxicity was 13.5% (inactive). In the case of `C[C@H]1CN([C@@H](C)CO)C(=O)c2cc(NC(=O)CCN3CCOCC3)ccc2O[C@@H]1CN(C)Cc1ccc(C(=O)O)cc1`, the activity change, negative = cytotoxicity is reported as 36.2% (inactive). For `O=C(NC(=S)Nc1ccccc1N1CCCC1)c1ccc([N+](=O)[O-])cc1`, the activity change, negative = cytotoxicity was -8.4% (inactive). In the case of `CN1C(=O)c2cc(NC(=O)Nc3ccc(Cl)cc3)ccc2OC[C@H]2O[C@@H](CC(=O)NCCN3CCCCC3)CC[C@@H]21`, the activity change, negative = cytotoxicity is reported as 36.5% (inactive). For `CO[C@@H]1CN(C)C(=O)c2ccc(NS(=O)(=O)c3ccc(Oc4ccccc4)cc3)cc2OC[C@H](C)NC[C@H]1C`, the activity change, negative = cytotoxicity was -26.5% (inactive). In the case of `CCNC(=O)COc1cccc(C(=O)NCc2ccccc2)c1`, the activity change, negative = cytotoxicity is reported as -54% (inactive). In the case of `CO[C@H]1CN(C)C(=O)c2cc(NS(=O)(=O)c3ccc(C)cc3)ccc2OC[C@H](C)N(C)C[C@H]1C`, the activity change, negative = cytotoxicity is reported as 13.7% (inactive). For `CCCC(=O)Nc1ccc2c(c1)OC[C@H](C)N(Cc1ccccn1)C[C@H](C)[C@H](OC)CN(C)C2=O`, the activity change, negative = cytotoxicity was 16.2% (inactive). With `O=C(CN(c1ccccc1)S(=O)(=O)c1ccc(F)cc1)NC1CCS(=O)(=O)C1` (stereo unspecified) the activity change, negative = cytotoxicity was -0.328% (inactive). For `COc1ccc(CN(C)C[C@@H]2OCCCC[C@@H](C)Oc3ccc(NC(=O)c4ccccc4)cc3C(=O)N([C@H](C)CO)C[C@@H]2C)cc1`, the activity change, negative = cytotoxicity was -11.1% (inactive). For `CNC[C@@H]1OCCCC[C@@H](C)Oc2ccc(NC(=O)NC(C)C)cc2C(=O)N([C@@H](C)CO)C[C@H]1C`, the activity change, negative = cytotoxicity was 34.5% (inactive). With `COc1cccc(NC(=O)N2C[C@H](O)COC[C@H]3O[C@@H](CC(=O)NCc4ccccc4F)CC[C@@H]32)c1` the activity change, negative = cytotoxicity was -23.2% (inactive). With `CO[C@H]1CC[C@H]2CCOc3c(C#N)cccc3C(=O)N(C)C[C@@H](C)C(=O)N(C)C[C@H]1O2` the activity change, negative = cytotoxicity was -16.5% (inactive). In the case of `C[C@H]1CN([C@@H](C)CO)C(=O)Cc2cc(NS(=O)(=O)c3ccc(F)cc3)ccc2O[C@H]1CN(C)S(=O)(=O)c1ccc(F)cc1`, the activity change, negative = cytotoxicity is reported as 6.2% (inactive). For `C[C@@H]1CN([C@@H](C)CO)C(=O)c2cccc(NS(=O)(=O)c3ccc(F)cc3)c2O[C@H]1CN(C)S(=O)(=O)c1ccc(Cl)cc1`, the activity change, negative = cytotoxicity was -22.8% (inactive). With `Cc1cccc(C)c1NC(=O)C(C)N1CCCCC1` (stereo unspecified) the activity change, negative = cytotoxicity was 6.43% (inactive). In the case of `CCCN(C)C[C@H]1OCCCC[C@@H](C)Oc2ccc(NC(=O)NC(C)C)cc2C(=O)N([C@@H](C)CO)C[C@H]1C`, the activity change, negative = cytotoxicity is reported as -9.71% (inactive). With `Cc1cccc(NC(=S)NN(Cc2ccccc2)c2ccccc2)c1C` the activity change, negative = cytotoxicity was 25.3% (inactive). For `CCCC#Cc1ccc2c(c1)O[C@@H](CN(C)C)[C@@H](C)CN([C@@H](C)CO)S2(=O)=O`, the activity change, negative = cytotoxicity was 13.6% (inactive). In the case of `C[C@H](CO)N1C[C@H](C)[C@H](CN(C)CC2CCCCC2)Oc2c(NS(C)(=O)=O)cccc2C1=O`, the activity change, negative = cytotoxicity is reported as 32.2% (inactive). With `C[C@@H]1CCCCO[C@H](CN(C)C(=O)c2ccccc2)[C@@H](C)CN([C@@H](C)CO)C(=O)c2cc(NC(=O)c3ccccc3)ccc2O1` the activity change, negative = cytotoxicity was 5.72% (inactive). For `C[C@H](O)C#Cc1ccc2c(c1)O[C@H](CN(C)C(=O)C1CCCCC1)[C@H](C)CN([C@@H](C)CO)S2(=O)=O`, the activity change, negative = cytotoxicity was 34.3% (inactive). In the case of `CO[C@H]1CN(C)C(=O)c2cc(NC(=O)c3ccc4c(c3)OCO4)ccc2OC[C@@H](C)N(CC2CC2)C[C@H]1C`, the activity change, negative = cytotoxicity is reported as -5.62% (inactive). For `COc1cccc(S(=O)(=O)N2C[C@@H](O)COC[C@H]3O[C@H](CC(=O)N4CCN(C)CC4)CC[C@@H]32)c1`, the activity change, negative = cytotoxicity was -1.64% (inactive). With `C[C@H]1CN([C@@H](C)CO)C(=O)c2ccccc2-c2ccccc2CO[C@H]1CN(C)S(=O)(=O)c1cccc(C#N)c1` the activity change, negative = cytotoxicity was -8.25% (inactive). In the case of `C[C@@H]1CN([C@@H](C)CO)C(=O)c2cc(N(C)C)ccc2O[C@@H]1CN(C)C(=O)Nc1ccc(C(F)(F)F)cc1`, the activity change, negative = cytotoxicity is reported as -29.4% (inactive). For `CCCN(C)C[C@@H]1OCCCC[C@H](C)Oc2ccc(NS(=O)(=O)c3ccc(C)cc3)cc2C(=O)N([C@H](C)CO)C[C@@H]1C`, the activity change, negative = cytotoxicity was 37.3% (inactive). With `CCCNC(=O)C[C@H]1C[C@H]2c3cc(NC(=O)Nc4ccc(OC)cc4)ccc3O[C@H]2[C@@H](CO)O1` the activity change, negative = cytotoxicity was -21% (inactive). With `C/C=C/c1ccc2c(c1)O[C@H](CN(C)S(=O)(=O)c1ccccc1)[C@H](C)CN([C@@H](C)CO)S2(=O)=O` the activity change, negative = cytotoxicity was -8.59% (inactive). With `S=C(Nc1ccccc1)Nc1cc(Cl)ccc1Oc1ccccc1` the activity change, negative = cytotoxicity was -0.976% (inactive). In the case of `O=C(C[C@H]1C[C@@H]2c3cc(NC(=O)CC4CC4)ccc3O[C@@H]2[C@@H](CO)O1)NCc1cccc(F)c1`, the activity change, negative = cytotoxicity is reported as 35.8% (inactive). In the case of `O=C1CCC(C(=O)Nc2cccc(C(F)(F)F)c2)N1` (stereo unspecified), the activity change, negative = cytotoxicity is reported as 22% (inactive). With `O=C(CCN1CCCCC1)NCC[C@@H]1CC[C@H](NC(=O)c2ccc(F)cc2)[C@@H](CO)O1` the activity change, negative = cytotoxicity was 9.77% (inactive). In the case of `COc1ccccc1-c1cnc2c(c1)C(=O)N([C@H](C)CO)C[C@@H](C)[C@H](CN(C)Cc1cncnc1)O2`, the activity change, negative = cytotoxicity is reported as 28.4% (inactive).
